From patent US11406649B2, “Treatment of upper aerodigestive tract disorders and cough” (IVIEW THERAPEUTICS, INC., priority 2018, dated 2022)
Converted amounts (≈) assume the structure as drawn. “Also recorded” adds a separate entry of the source.

Key:
rat skin = experiment: Skin irritation tests on rat skin; type: in vivo; parameters: key to Redness after 20 μL applied topically to skin (scale of 0 to +++): scale of 0 to +++; scale of 0 to +++; scale of 0 to +++; scale of 0 to +++; details: for Redness after 20 μL applied topically to skin (scale of 0 to +++): rat skin; for skin irritancy: undiluted form
Oral Cavity and Pharynx = experiment: Sensory qualities of compounds in syrup applied to base of tongue of volunteers; type: in vivo, human; details: for duration of unpleasant tastes: metallic, organic solvent-like, harsh
Procedure: The DIPA compounds was 5 mg/mL in cherry-flavored syrup in a volume of 0.8 mL per dose. The sensory effect were recorded every 5 min for 1 hr.
Tests were on four volunteers, with 3 to 5 trials per substance. Compounds were prepared in cherry-flavored syrup at 5 mg/mL and administered ˜0.8 mL per dose with a 2 mL plastic vial to the base of the tongue. The subjects asked to rate the sensations for cooling intensity, cold discomfort and adverse taste.
The concentration of the DIPA compounds was 5 mg/mL in cherry-flavored syrup administered in a volume of 0.8 mL per dose. The sensory effect were recorded every 5 min for 1 hr.

[1] = system: acid-induced swallowing movements; experiment: Suppression of acid-induced swallowing movements in the anesthetized rat; type: in vivo; details: for EC50: anesthetized rat; for Relative Potency: suppression of acid-induced swallowing
From the text: A principal endogenous irritant in the linings of the upper aerodigestive tract is hydrochloric acid. Acid stimulations of the mucosa of the pharynx will elicit reflex swallowing. […] In a rat animal model, solutions of organic acids such as acetic acid and citric acid were effective in eliciting swallowing [Kajii et al., Sour taste stimulation facilitates reflex swallowing from the pharynx and larynx in the rat Physiology & Behavior 77: 321-325, 2002]. These methods for measuring sensory responses to acid can be adapted for screening the activity of DIPA-1-9. An agent that stimulates swallowing or an agent that suppress the acid challenge may then have utility in relieving dysphagia or the discomfort of heartburn, respectively. Preliminary experiments were conducted at the Pavlov Institute of Physiology, St. Petersburg, Russia, using adult male Wistar rats (see Table 11) and Wei (US 0.2015/0111852 A1). Swallowing movements was identified as the electromyogram activity and could also be visualized as laryngeal movement. Work is in progress to get more results for DIPA-1-9.

[2] = Water solubility of 1-dialkylphosphorylalkanes; type: physicochemical; details: water
From the text: The DIPA compounds are colorless liquids with a density less than water. These structures differ from those described by Rowsell and Spring U.S. Pat. No. 4,070,496 because '496 structures have their “head” (phosphine oxide group) covered by larger, more lipophilic groups. […] The applicant synthesized these analogs (which are achiral, by contrast to the structures of '496 which are >95% chiral). […] This increased water-solublility is striking (Table 3). […] The DIPA analogs are now mobile in the extracellular fluids and permeate between cells to access nerve endings in the stratum basale.

oropharynx and esophagus = experiment: Sensory events and cold discomfort of compounds on throat, chest and body; details: for icy cold / pain in throat: DIPA-1-9 up to 12 mg per unit; for taste: oral cavity / tongue; for sensory side-effects: menthol 5 mg in an orally dissolving tablet
From the text: The terms “icy cold” is used to describe this adverse event in the throat.
Most likely, the compound rapidly distributed and activated cold sensations in the eosophageal lining.

cloned hTRPM8 channel = cloned hTRPM8 channel (Homo sapiens (Human), UniProt Q7Z2W7); experiment: TRPM8 agonist activity, Fluo-8 calcium FLIPR assay (ChanTest); type: cell-based; details: for Relative Potency to L-menthol: L-menthol = 1.0; for TRPM8 Relative Potency: Table 8, DIPA-1-7 = 1; for TRPM8 bioactivity: structural modifications
Procedure: In the first set of data, the potency and in vitro effects of test compounds were evaluated on cloned hTRPM8 channel (encoded by the human TRPM8 gene, expressed in CHO cells) using a Fluo-8 calcium kit and a Fluorescence Imaging Plate Reader (FLIPR^TETRA™) instrument. […] Test solutions were in a HEPES-buffered saline, in 384-well plates, and placed into the FLIPR instrument (Molecular Devices Corporation, Union City, Calif., USA). […] The test cells were Chinese Hamster Ovary (CHO) cells stably transfected with human TRPM8 cDNAs. Concentration-response data were analyzed via FLIPR Control software) and fitted to a Hill equation for the EC50.

[3] = system: dorsal surface of the tongue; details: average of 6 subjects; cited from earlier work
anesthetized rat = experiment: In vivo transdermal activity: shaking after topical application to abdominal skin of anesthetized rat; details: pure compound 20 μL on abdominal skin, counted 40 min
Procedure: Shaking frequency was counted for 40 min after topical application.
The importance of water solubility for permeation was further illustrated in studies on the abdominal skin of anesthetized rat. […] The pharmacokinetic determinants of bioactivity are precise. Thus, for the avoidance of cold discomfort, DIPA-1-9 has to reach the receptors in the stratum basale but not “over-stimulate”.

[4] = Flux through excised hairless mouse skin in vitro; type: in vitro ADME
Procedure: Test chemicals dissolved in a gel were placed in an incubation well for 8 hr and the permeated amount of the chemical measured by a high pressure liquid chromatograph equipped with a refractive detector. These tests were conducted by Prof Choi of Chosun University, Korea. The flux of DIPA-1-7 was ˜5× greater than DIPA-1-9.
To further study the skin permeation of DIPA compounds, tests were conducted on the flux of DIPA-1-7 and DIPA-1-9 through excised hairless mouse skin in vitro. These tests were conducted by Prof Choi, Dean of the School of Pharmacy of Chosun University, Korea, and the results shown in (FIG. 5).

TRPM8 = TRPM8 (Mus musculus (Mouse), UniProt Q8R4D5); experiment: TRPM8 Fura-2 calcium assay in transfected CHO cells (Andersson et al.); type: cell-based; details: FIG. 4
Procedure: FIG. 4. is a graph of fluorescence response (Δ ratio 340/380) in TRPM8 transfected cells as a function of the logarithm of the concentration of the test compound, expressed in μM, for DIPA-1-7 (black circle), 3,4-7 (open squares), or 3,4-6 (open triangles). The assays were conducted by Andersson et al. of King's College, London, UK, using his methods described in “Modulation of the cold-activated channel TRPM8 by lysophospholipids and polyunsaturated fatty acids. Journal Neuroscience 27 (12): 3347-3355, 2007.
In a second set, tests were made on “mixed” isopropyl-sec-butylphosphorylhexane and heptane analogs described as 3,4-6 and 3,4-7 in Table 2, and results shown in FIG. 4. […] Emission intensity from cells was measured for 90 sec, at every 4 or 5 sec, using excitation wavelengths of 340 and 380 nm and an emission of 520 nm. Fluorescence emission intensity ratios at 340 nm/380 nm excitation (R, in individual cells) were recorded with a FlexStation and the ImageMaster suite of software (PTI, South Brunswick, N.J.). Samples were tested in triplicate at each concentration and the averaged values analyzed by non-linear regression using an a sigmoidal function fit of the points to obtain an estimated EC50 (median effective concentration) (GraphPad Prism software, La Jolla, Calif.). […]

[5] = system: respiratory syncytial virus (RSV) induced cough; experiment: Mouse cough model of respiratory syncytial virus infection; type: in vivo; details: 1 mg perioral per mouse, 1 hr before count
[6] = 5 mg/mL in cherry-flavored syrup
[7] = 5 mg/mL in cherry-flavored syrup, ~0.8 mL

Chain of cloned hTRPM8 channel (Q7Z2W7 whole entry): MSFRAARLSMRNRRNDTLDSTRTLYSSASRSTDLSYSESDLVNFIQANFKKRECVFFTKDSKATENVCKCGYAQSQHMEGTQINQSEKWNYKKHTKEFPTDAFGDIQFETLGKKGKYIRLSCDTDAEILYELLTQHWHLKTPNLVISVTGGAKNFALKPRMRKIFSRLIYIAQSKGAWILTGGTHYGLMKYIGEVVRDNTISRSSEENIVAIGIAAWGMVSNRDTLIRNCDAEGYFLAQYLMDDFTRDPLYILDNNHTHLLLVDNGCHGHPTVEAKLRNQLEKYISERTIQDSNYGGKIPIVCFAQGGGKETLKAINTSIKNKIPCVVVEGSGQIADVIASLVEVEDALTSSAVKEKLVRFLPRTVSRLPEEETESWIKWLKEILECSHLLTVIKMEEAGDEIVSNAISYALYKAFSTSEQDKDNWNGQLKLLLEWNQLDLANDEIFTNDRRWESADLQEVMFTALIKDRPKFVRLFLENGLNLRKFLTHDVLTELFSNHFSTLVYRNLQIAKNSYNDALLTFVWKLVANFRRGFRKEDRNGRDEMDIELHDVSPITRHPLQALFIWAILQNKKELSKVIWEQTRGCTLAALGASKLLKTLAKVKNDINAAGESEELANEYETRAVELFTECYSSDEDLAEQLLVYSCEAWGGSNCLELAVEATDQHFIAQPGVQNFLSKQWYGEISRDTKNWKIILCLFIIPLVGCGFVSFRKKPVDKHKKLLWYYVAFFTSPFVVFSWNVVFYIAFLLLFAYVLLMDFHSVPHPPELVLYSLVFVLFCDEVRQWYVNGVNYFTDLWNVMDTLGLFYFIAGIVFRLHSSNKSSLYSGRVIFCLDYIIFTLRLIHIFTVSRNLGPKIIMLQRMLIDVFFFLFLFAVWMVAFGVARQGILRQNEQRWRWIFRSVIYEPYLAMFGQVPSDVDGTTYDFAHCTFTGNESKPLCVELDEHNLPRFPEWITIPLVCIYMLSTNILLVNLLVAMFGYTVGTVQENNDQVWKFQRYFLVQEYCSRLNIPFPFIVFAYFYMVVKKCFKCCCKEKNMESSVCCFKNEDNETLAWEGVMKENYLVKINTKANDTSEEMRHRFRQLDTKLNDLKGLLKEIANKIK
Chain of TRPM8 (Q8R4D5 whole entry): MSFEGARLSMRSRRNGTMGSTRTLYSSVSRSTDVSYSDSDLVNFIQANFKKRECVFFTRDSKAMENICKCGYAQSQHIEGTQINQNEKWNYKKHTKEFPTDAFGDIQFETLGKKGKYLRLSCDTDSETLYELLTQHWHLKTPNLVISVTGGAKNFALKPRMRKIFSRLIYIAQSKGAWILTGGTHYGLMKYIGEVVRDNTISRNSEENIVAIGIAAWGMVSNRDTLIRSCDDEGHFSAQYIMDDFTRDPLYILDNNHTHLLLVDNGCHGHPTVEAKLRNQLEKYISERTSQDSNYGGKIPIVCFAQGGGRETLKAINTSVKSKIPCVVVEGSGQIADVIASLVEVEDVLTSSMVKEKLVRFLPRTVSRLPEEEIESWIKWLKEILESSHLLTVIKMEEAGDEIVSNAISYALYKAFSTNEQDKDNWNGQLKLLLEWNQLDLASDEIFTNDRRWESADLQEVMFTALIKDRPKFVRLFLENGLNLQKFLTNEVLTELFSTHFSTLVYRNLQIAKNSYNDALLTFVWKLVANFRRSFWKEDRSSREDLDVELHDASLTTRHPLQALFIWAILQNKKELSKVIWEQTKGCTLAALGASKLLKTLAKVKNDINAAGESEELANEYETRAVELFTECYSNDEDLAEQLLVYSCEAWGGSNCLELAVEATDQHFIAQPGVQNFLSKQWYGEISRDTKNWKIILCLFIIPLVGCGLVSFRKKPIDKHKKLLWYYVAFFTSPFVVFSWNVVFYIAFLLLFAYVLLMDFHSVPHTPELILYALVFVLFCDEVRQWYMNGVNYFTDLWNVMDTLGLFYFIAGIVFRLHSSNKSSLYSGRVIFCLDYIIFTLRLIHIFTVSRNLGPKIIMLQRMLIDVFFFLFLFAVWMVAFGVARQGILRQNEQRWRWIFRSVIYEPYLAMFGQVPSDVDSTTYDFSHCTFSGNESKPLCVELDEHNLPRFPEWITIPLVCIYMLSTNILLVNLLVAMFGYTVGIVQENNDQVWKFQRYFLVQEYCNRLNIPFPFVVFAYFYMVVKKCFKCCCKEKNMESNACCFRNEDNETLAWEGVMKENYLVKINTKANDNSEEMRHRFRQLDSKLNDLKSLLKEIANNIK

SMILES: CCCCCCCP(=O)(C(C)CC)C(C)CC (stereo not shown) [DAPA-2-7, 1-Di(sec-butyl)-phosphinoyl-heptane]
- Redness after 20 μL applied topically to skin (scale of 0 to +++) (rat skin): ++
- skin irritancy (rat skin): skin irritants
- sensory effects (Oral Cavity and Pharynx; [6]): cold, icy cold, and adverse tastes
- Sensation (Oral Cavity and Pharynx; [7]): icy cold
- duration of unpleasant tastes (Oral Cavity and Pharynx): at least 15 min
- EC50 [1]: 200 ± 20 µg/mL (≈ 0.768 mM)
- Comments: duration of effect ([1]; long-lasting): lasting; > ~30 min
- Relative Potency [1]: 0.45
- solubility [2]: < 3 mg/mL
- icy cold / pain in throat (oropharynx and esophagus): icy cold
- systemic sensations of cold (oropharynx and esophagus; higher oral doses (5 mg or more)): sensations of cold on other body surfaces
- Relative Potency to L-menthol (cloned hTRPM8 channel): 3.4
- TRPM8 Relative Potency (cloned hTRPM8 channel): 0.64

SMILES: CCCCCCCCP(=O)(C(C)C)C(C)C [DIPA-1-8, 1-Di(isopropyl)-phosphinoyl-octane]
- sensory effects (Oral Cavity and Pharynx; [6]): cold, icy cold, and adverse tastes
- Sensation (Oral Cavity and Pharynx; [7]): cold
- duration of unpleasant tastes (Oral Cavity and Pharynx): at least 15 min
- solubility [2]: > 300 mg/mL
- taste (oropharynx and esophagus): this taste is present
- Relative Potency to L-menthol (cloned hTRPM8 channel): 5.4

SMILES: CCC(C)P(=O)(CCC(C)C)C(C)CC (stereo not shown) [DAPA-3-2, 1-Di(sec-butyl) phosphinoyl-3-methyl-butane]
- Relative Potency to L-menthol (cloned hTRPM8 channel): 0.9
- TRPM8 bioactivity (cloned hTRPM8 channel): significant loss of bioactivity

SMILES: CC(C)[C@@H]1CC[C@@H](C)C[C@H]1O [Menthol, reference compound]
- Threshold, μg (cooling on tongue) [3]: 0.25 µg
- sensory side-effects (oropharynx and esophagus): chest discomfort

SMILES: CCCCCP(=O)(CC(C)C)CC(C)C [DAPA-3-1, 1-di(iso-butyl) phosphinoyl-pentane]
- Relative Potency to L-menthol (cloned hTRPM8 channel): 0.2
- TRPM8 bioactivity (cloned hTRPM8 channel): significant loss of bioactivity

SMILES: CCCCCCCP(=O)(C(C)C)C(C)C [DIPA-1-7, 1-Di(isopropyl)-phosphinoyl-heptane]
- sensory effects (Oral Cavity and Pharynx; [6]): cold, icy cold, and adverse tastes; also recorded: icy pain in the back of the throat
- Sensation (Oral Cavity and Pharynx; [7]): painful cold
- duration of unpleasant tastes (Oral Cavity and Pharynx): at least 15 min
- EC50 [1]: 820 ± 80 µg/mL (≈ 3.53 mM)
- Relative Potency [1]: 0.11
- solubility [2]: > 300 mg/mL
- shaking after topical application (anesthetized rat): vigorous shaking; also recorded: robust shaking
- icy cold / pain in throat (oropharynx and esophagus): icy cold
- cold in the chest / behind sternum (oropharynx and esophagus; in vivo): spreads behind the sternum, into the chest
- taste (oropharynx and esophagus): this taste is present
- Relative Potency to L-menthol (cloned hTRPM8 channel): 5.4
- TRPM8 Relative Potency (cloned hTRPM8 channel): 1
- penetration of excised skin [4]: very active in penetrating the excised skin
- flux relative to DIPA-1-9 ([4]; gel, 8 hr): ~5 ×
- decrease in rate of permeation by added standard enhancers ([4]; propylene glycol-oleyl alcohol (50:50) or Lauroglycol 90 added to gel): ~50%
- potency for activation of TRPM8 relative to 3,4-6 (TRPM8): ~10 ×
- potency for activation of TRPM8 relative to 3,4-7 (TRPM8): ~5 ×

SMILES: COc1ccc2c3c1O[C@H]1[C@@H](O)C=C[C@H]4[C@@H](C2)N(C)CC[C@@]341 [Codeine, reference compound]
- cough frequency [5]: significantly inhibited cough frequency

SMILES: CCCCCCCCP(=O)(C(C)CC)C(C)CC (stereo not shown) [DAPA-2-8, 1-Di(sec-butyl)-phosphinoyl-octane]
- Sensation (Oral Cavity and Pharynx; [7]): cold
- duration of unpleasant tastes (Oral Cavity and Pharynx): at least 15 min
- EC50 [1]: 560 ± 170 µg/mL (≈ 2.04 mM)
- Relative Potency [1]: 0.16
- solubility [2]: < 3 mg/mL
- Relative Potency to L-menthol (cloned hTRPM8 channel): 2.9
- TRPM8 Relative Potency (cloned hTRPM8 channel): 0.71

SMILES: CCCCP(=O)(C(C)CC)C(C)CC (stereo not shown) [DAPA-2-4, 1-Di(sec-butyl)-phosphinoyl-butane]
- Relative Potency to L-menthol (cloned hTRPM8 channel): 0.3

SMILES: CCCCCP(=O)(C(C)CC)C(C)CC (stereo not shown) [DAPA-2-5, 1-di-sec-butyl-phosphorylpentane]
- solubility [2]: 22 mg/mL (≈ 94.7 mM)
- Relative Potency to L-menthol (cloned hTRPM8 channel): 2.2

SMILES: CCCCCC[P@@](=O)(C(C)C)[C@@H](C)CC [3,4-6, 1-(Isopropyl-sec-butyl)-phosphinoyl-hexane]
- Adverse Taste (Oral Cavity and Pharynx; [7]): 0
- solubility [2]: 25 mg/mL (≈ 108 mM)

SMILES: O=C1NC(c2cccc([N+](=O)[O-])c2)=CCN1c1ccccc1O [icilin, reference compound]
- sensory side-effects (oropharynx and esophagus): did not produce cooling in the chest or the desired sensations on the throat

SMILES: CCCCCCC[P@@](=O)(C(C)C)[C@@H](C)CC [3,4-7, 1-(Isopropyl-sec-butyl)-phosphinoyl-heptane]
- solubility [2]: 20 mg/mL (≈ 81.2 mM)

SMILES: CCCCCCP(=O)(C(C)CC)C(C)CC (stereo not shown) [DAPA-2-6, 1-Di(sec-butyl)-phosphinoyl-hexane]
- Redness after 20 μL applied topically to skin (scale of 0 to +++) (rat skin): +
- skin irritancy (rat skin): skin irritants
- sensory effects (Oral Cavity and Pharynx; [6]): cold, icy cold, and adverse tastes
- Sensation (Oral Cavity and Pharynx; [7]): icy cold
- duration of unpleasant tastes (Oral Cavity and Pharynx): at least 15 min
- EC50 [1]: 1700 ± 700 µg/mL (≈ 6.9 mM)
- Relative Potency [1]: 0.05
- solubility [2]: 8 mg/mL (≈ 32.5 mM)
- icy cold / pain in throat (oropharynx and esophagus): icy cold
- Relative Potency to L-menthol (cloned hTRPM8 channel): 4.7
- TRPM8 Relative Potency (cloned hTRPM8 channel): 0.87

SMILES: CCCCCP(=O)(C(C)C)C(C)C [DIPA-1-5, 1-Di(isopropyl)-phosphinoyl-pentane]
- shaking after topical application (anesthetized rat): robust shaking
- Relative Potency to L-menthol (cloned hTRPM8 channel): 0.7

SMILES: CCCCCCP(=O)(C(C)C)C(C)C [DIPA-1-6, 1-Di(isopropyl)-phosphinoyl-hexane]
- shaking after topical application (anesthetized rat): robust shaking
- icy cold / pain in throat (oropharynx and esophagus): icy cold
- Relative Potency to L-menthol (cloned hTRPM8 channel): 1.6
